Experimental data reported in patent US20080051418A1, “Arylalkanoic Acid Derivative” (priority 2004, published 2008).
Structures can show the parent of a compound that is named as a salt. Where two headings read alike, the source gives them in different places.

Legend:
[1] = target: T1, PPARγ-RXRα heterodimer (Homo sapiens, UniProt P37231); test: PPARγ-RXRα heterodimer ligand activity (luciferase reporter); type: cell-based; details: PPARγ:RXRα:4ERPP/CHO-K1 cells, 18-24 hr, concentration showing 50% of the maximum induction rate
T1 construct: expressed in transfected cells; host or cells: CHO-K1
T1 sequence (P37231 1-505): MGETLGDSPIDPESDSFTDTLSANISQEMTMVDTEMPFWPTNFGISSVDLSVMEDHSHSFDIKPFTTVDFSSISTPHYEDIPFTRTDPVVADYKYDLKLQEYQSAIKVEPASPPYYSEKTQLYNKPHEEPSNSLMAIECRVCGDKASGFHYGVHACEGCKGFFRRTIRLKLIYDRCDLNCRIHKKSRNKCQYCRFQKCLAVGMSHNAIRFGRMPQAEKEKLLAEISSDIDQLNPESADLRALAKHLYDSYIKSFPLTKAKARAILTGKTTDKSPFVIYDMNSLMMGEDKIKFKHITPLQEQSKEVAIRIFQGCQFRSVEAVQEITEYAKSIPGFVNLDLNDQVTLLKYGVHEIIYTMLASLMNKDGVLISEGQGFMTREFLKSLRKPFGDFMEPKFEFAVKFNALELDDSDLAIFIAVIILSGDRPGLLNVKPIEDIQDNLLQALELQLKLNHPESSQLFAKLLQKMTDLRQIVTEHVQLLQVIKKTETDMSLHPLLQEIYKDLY
T1 sequence (P19793 1-462 partner): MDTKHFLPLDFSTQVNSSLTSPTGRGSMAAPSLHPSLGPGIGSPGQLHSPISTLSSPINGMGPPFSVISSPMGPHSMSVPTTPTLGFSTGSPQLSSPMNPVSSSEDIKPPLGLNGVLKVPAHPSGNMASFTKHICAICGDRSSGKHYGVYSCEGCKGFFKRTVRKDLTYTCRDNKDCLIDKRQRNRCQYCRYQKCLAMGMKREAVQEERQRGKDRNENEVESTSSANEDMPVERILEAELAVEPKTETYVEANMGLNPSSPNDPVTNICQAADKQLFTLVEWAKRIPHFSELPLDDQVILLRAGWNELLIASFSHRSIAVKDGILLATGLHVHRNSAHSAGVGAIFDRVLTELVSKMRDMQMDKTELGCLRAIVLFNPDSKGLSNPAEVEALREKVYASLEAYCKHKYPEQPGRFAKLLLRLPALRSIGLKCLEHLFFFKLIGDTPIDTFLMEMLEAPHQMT
Method: The PPARγ:RXRα:4ERPP/CHO-K1 cells described in WO03/099793 were cultured in a Ham F12 medium [manufactured by Life Technologies, Inc., US] containing 10% calf fetal serum [manufactured by Life Technologies, Inc., US], sown in a 96-well white plate [manufactured by Corning Coster Corporation, US] at 2×10^4 cells/well, and incubated overnight in a carbon dioxide gas incubator at 37° C.
Then, the medium was removed from the 96 well white plate, 80 μl of Ham F12 medium containing 0.1% fatty acid-free bovine serum albumin (BSA) and a test compound (20 μl) were added, and the cells were incubated for 18-24 hr in a carbon dioxide gas incubator at 37° C. The medium was removed, 40 μl of PicaGene 7.5 (manufactured by Wako Pure Chemical Industries, Ltd.) diluted 2-fold with HBSS (HANKS' BALANCED SALT SOLUTION) [manufactured by BIO WHITTAKER, US] was added. After stirring, the luciferase activity was determined using the 1420 ARVO Multilabel Counter [manufactured by PerkinElmer, US].
The induction rate was calculated from the luciferase activity of each test compound based on the luciferase activity of the test compound non-administration group as 1. The test compound concentration and the induction rate were analyzed by PRISM [manufactured by GraphPad Software, Inc., US] to calculate EC50 value (compound concentration showing 50% of the maximum value of induction rate) of the test compound.

[2] = tested on: KKA^y mice; test: Blood glucose and blood lipid (triglyceride) lowering action in mice; type: in vivo; details: Mus musculus, po, 96 h, 0.005% in powder diet, 4 days, non-administration group = 100%
Description: The test compound was mixed with a powder diet (CE-2, CLEA JAPAN, INC.) at a proportion of 0.005% (0.01% for the compound of Example 105) and freely given to KKA^y mice (9 to 12-week-old, 5 mice per group) which are obesity-insulin independent diabetes mellitus (type-2 diabetes) models, for 4 days. During this period, water was freely given. The blood was drawn from the orbital venous plexus. Glucose and triglyceride in the plasma separated from the blood were quantitated using L Type Wako Glu2 (Wako Pure Chemical Industries, Ltd.) and L Type Wako TG•H (Wako Pure Chemical Industries, Ltd.), respectively, according to an enzyme method.

[3] = lowering rate of plasma glucose, read-out: hypoglycemic action (%)
[4] = lowering rate of plasma triglyceride, read-out: hypolipidemic action (%)

| SMILES | EC50 [1] [nM] | melting point [°C] | inhibition in vivo at 0.005 % [2, 3] [%] | inhibition in vivo at 0.005 % [2, 4] [%] |
| --- | --- | --- | --- | --- |
| CCn1nc(OCCCc2ccc(OCCOC(C)C)cc2Oc2ncc(C(F)(F)F)cc2Cl)cc1CCC(=O)O [Example 150, 3-(3-{3-[2-{[3-chloro-5-(trifluoromethyl)pyridin-2-yl]oxy}-4-(2-isopropoxyethoxy)phenyl]propoxy}-1-ethyl-1H-pyrazol-5-yl)propanoic acid] | 2.6 | 130.5 to 131.5 | 58 | 54 |
| CC(C)c1cc(CCCOc2nn(Cc3ccccc3)cc2CC(=O)O)n(Cc2ccc(C(F)(F)F)cc2Cl)n1 [Example 76, [1-benzyl-3-(3-{1-[2-chloro-4-(trifluoromethyl)benzyl]-3-isopropyl-1H-pyrazol-5-yl}propoxy)-1H-pyrazol-4-yl]acetic acid 1/2 calcium salt] | 1.5 | – | 64 | 57 |
| CCn1nc(OCCCc2ccc(OCCOC)cc2Oc2ncc(C(F)(F)F)cc2Cl)cc1CCC(=O)O [Example 149, 3-(3-{3-[2-{[3-chloro-5-(trifluoromethyl)pyridin-2-yl]oxy}-4-(2-methoxyethoxy)phenyl]propoxy}-1-ethyl-1H-pyrazol-5-yl)propanoic acid] | 5 | 101 to 103 | 57 | 51 |
| COCOc1cc(CCCOc2nn(Cc3ccccc3)cc2CC(=O)O)n(Cc2ccc(Cl)cc2Cl)n1 [Example 95, (1-benzyl-3-{3-[1-(2,4-dichlorobenzyl)-3-(methoxymethoxy)-1H-pyrazol-5-yl]propoxy}-1H-pyrazol-4-yl)acetic acid] | 2.4 | 89.5 to 91.5 | 65 | 65 |
| COc1cccc(CC(=O)O)c1OCCCc1cc(OC(C)C)nn1C(C)c1ccc(Cl)cc1Cl (stereo not shown) [Example 17, [2-(3-{1-[1-(2,4-dichlorophenyl)ethyl]-3-isopropoxy-1H-pyrazol-5-yl}propoxy)-3-methoxyphenyl]acetic acid] | 6.2 | – | 57 | 78 |
| CC(C)c1cc(CCCOc2ncccc2CC(=O)O)n(Cc2ccc(C(F)(F)F)cc2Cl)n1 [Example 77, [2-(3-{1-[2-chloro-4-(trifluoromethyl)benzyl]-3-isopropyl-1H-pyrazol-5-yl}propoxy)pyridin-3-yl]acetic acid] | 5.4 | 114 to 115 | 63 | 42 |
| COc1cccc(CC(=O)O)c1OCCCc1cc(C(C)C)nn1Cc1ccc(Cl)cc1Cl [Example 35, (2-{3-[1-(2,4-dichlorobenzyl)-3-isopropyl-1H-pyrazol-5-yl]propoxy}-3-methoxyphenyl)acetic acid] | 2.7 | 101 to 102 | – | – |
| Cc1cc(C(F)(F)F)ccc1Cn1nc(OC(C)C)cc1CCCOc1ncccc1CC(=O)O [Example 80, [2-(3-{3-isopropoxy-1-[2-methyl-4-(trifluoromethyl)benzyl]-1H-pyrazol-5-yl}propoxy)pyridin-3-yl]acetic acid] | 5.4 | 105 to 107 | – | – |
| Cc1cc(C(F)(F)F)ccc1Cn1nc(OC(C)C)cc1CCCOc1nn(Cc2ccccc2)cc1CC(=O)O [Example 78, [1-benzyl-3-(3-{3-isopropoxy-1-[2-methyl-4-(trifluoromethyl)benzyl]-1H-pyrazol-5-yl}propoxy)-1H-pyrazol-4-yl]acetic acid] | 1.3 | – | 63 | 55 |
| CC(C)Oc1ccc(CCCOc2nn(Cc3ccccc3)cc2CC(=O)O)c(Oc2ncc(Cl)cc2Cl)c1 [Example 133, [1-benzyl-3-(3-{2-[(3,5-dichloropyridin-2-yl)oxy]-4-isopropoxyphenyl}propoxy)-1H-pyrazol-4-yl]acetic acid] | 1.2 | 111 to 113 | – | – |
| CC(C)Oc1cc(CCCOc2ncccc2CC(=O)O)n(Cc2ccc(Cl)cc2Cl)n1 [Example 31, (2-{3-[1-(2,4-dichlorobenzyl)-3-isopropoxy-1H-pyrazol-5-yl]propoxy}pyridin-3-yl)acetic acid] | 14 | 88 to 90 | 44 | 55 |
| CC(C)Oc1cc(CCCOc2nn(Cc3ccccc3)cc2CC(=O)O)n(Cc2ccc(Cl)cc2Cl)n1 [Example 86, (1-benzyl-3-{3-[1-(2,4-dichlorobenzyl)-3-isopropoxy-1H-pyrazol-5-yl]propoxy}-1H-pyrazol-4-yl)acetic acid] | 2.5 | 108 to 110 | 51 | 51 |
| COc1cccc(CC(=O)O)c1OCCCc1cc(OC(C)C)nn1Cc1ccccc1C [Example 21, (2-{3-[3-isopropoxy-1-(2-methylbenzyl)-1H-pyrazol-5-yl]propoxy}-3-methoxyphenyl)acetic acid] | 41 | – | 51 | 78 |
| CCCOc1cc(CCCOc2c(CC(=O)O)cccc2OC)n(Cc2ccc(C(F)(F)F)cc2)n1 [Example 59, [3-methoxy-2-(3-{3-propoxy-1-[4-(trifluoromethyl)benzyl]-1H-pyrazol-5-yl}propoxy)phenyl]acetic acid] | 23 | 122 to 123 | – | – |
| CC(C)Oc1cc(CCCOc2nn(Cc3ccccc3)cc2CC(=O)O)n(Cc2ccc(F)cc2Cl)n1 [Example 92, (1-benzyl-3-{3-[1-(2-chloro-4-fluorobenzyl)-3-isopropoxy-1H-pyrazol-5-yl]propoxy}-1H-pyrazol-4-yl)acetic acid] | 5.1 | 121 to 123 | – | – |
| CCCOc1cc(CCCOc2c(CC(=O)O)cccc2OC)n(Cc2ccc(F)cc2F)n1 [Example 82, (2-{3-[1-(2,4-difluorobenzyl)-3-propoxy-1H-pyrazol-5-yl]propoxy}-3-methoxyphenyl)acetic acid] | 26 | 77 to 80 | – | – |
| COc1cccc(CC(=O)O)c1OCCCc1cc(OC(C)C)nn1Cc1ccc(F)cc1F [Example 60, (2-{3-[1-(2,4-difluorobenzyl)-3-isopropoxy-1H-pyrazol-5-yl]propoxy}-3-methoxyphenyl)acetic acid] | – | – | 54 | 76 |
| CC(C)OCCOc1ccc(CCCOc2nn(C)cc2CC(=O)O)c(Oc2ncc(C(F)(F)F)cc2Cl)c1 [Example 177, (3-{3-[2-{[3-chloro-5-(trifluoromethyl)pyridin-2-yl]oxy}-4-(2-isopropoxyethoxy)phenyl]propoxy}-1-methyl-1H-pyrazol-4-yl)acetic acid] | 1.5 | 103.5 to 104.5 | – | – |
| COc1cccc(CC(=O)O)c1OCCCc1cc(OC(C)C)nn1Cc1ccccc1Cl [Example 61, (2-{3-[1-(2-chlorobenzyl)-3-isopropoxy-1H-pyrazol-5-yl]propoxy}-3-methoxyphenyl)acetic acid] | 25 | – | 51 | 90 |
